Laboratory results from ChEMBL document CHEMBL1201862, “PubChem BioAssay data set” (2004).
Activity calls are given as the source filed them.

What was measured:
[1] = off-target signal loss in HeLa-CEM21 co-culture – HeLa F-luc CTL cells, cherry-picked, counter-screen for HIV-1 Env fusion inhibitor project, dose response (AID 652040); type: functional, cell-based;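 also: potency for signal decrease marking cytotoxic or nonspecific inhibition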
[2] = HIV-1 AD8 envelope cell-cell fusion blockers – cherry-pick, dose response (AID 652062); type: functional, cell-based;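 also: luciferase signal from cell-cell fusion driven by HIV-1 clade B AD8 Env; potency is for inhibitors of fusion seen as a drop in luminescence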
[3] = viability loss in CEM21 cells – cell-based, CellTiter-Glo luminescence, cherry-picked, cytotoxicity control for viral fusion inhibitor project, dose response (AID 652042); type: functional;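 also: potency for signal decrease meaning cytotoxicity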
[4] = blockers of HIV-1 ZM109 envelope-driven cell-cell fusion – HeLa effector, CEM target cells, luciferase, cherry-pick, dose response (AID 652058); type: functional, cell-based;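 also: luciferase signal from HIV-1 Env mediated cell-cell fusion of effector and target cells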
[5] = blockers of HIV-1 envelope-mediated cell-cell fusion – cherry-pick, dose response (AID 652057); type: functional, cell-based
[6] = intracellular Trypanosoma cruzi inhibitors in host cells – cell-based, plate reader, cherry-pick samples, set 3, dose response (AID 651818); type: functional;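 also: compounds incubated with infected cells for about four days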
[7] = mouse fibroblast viability loss – cell-based, cherry-pick samples, set 2, cytotoxicity control for T. cruzi growth inhibitor project, dose response (AID 651817); type: functional; conditions: NIH3T3
[8] = cytotoxicity in HEK293 background cells – cell-based, dry powder, set 2, counter-screen for EBV LMP1 inhibitor project, dose response (AID 624374); type: functional
[9] = target: Metabotropic glutamate receptor 3 (Rattus norvegicus, UniProt P31422); assay: inhibitors of rat mGlu3 Galpha15 signaling – TREx293 cells, calcium flux, mGlu3 NAM project, dose response (AID 651840); type: functional
Metabotropic glutamate receptor 3, sequence (P31422 whole entry): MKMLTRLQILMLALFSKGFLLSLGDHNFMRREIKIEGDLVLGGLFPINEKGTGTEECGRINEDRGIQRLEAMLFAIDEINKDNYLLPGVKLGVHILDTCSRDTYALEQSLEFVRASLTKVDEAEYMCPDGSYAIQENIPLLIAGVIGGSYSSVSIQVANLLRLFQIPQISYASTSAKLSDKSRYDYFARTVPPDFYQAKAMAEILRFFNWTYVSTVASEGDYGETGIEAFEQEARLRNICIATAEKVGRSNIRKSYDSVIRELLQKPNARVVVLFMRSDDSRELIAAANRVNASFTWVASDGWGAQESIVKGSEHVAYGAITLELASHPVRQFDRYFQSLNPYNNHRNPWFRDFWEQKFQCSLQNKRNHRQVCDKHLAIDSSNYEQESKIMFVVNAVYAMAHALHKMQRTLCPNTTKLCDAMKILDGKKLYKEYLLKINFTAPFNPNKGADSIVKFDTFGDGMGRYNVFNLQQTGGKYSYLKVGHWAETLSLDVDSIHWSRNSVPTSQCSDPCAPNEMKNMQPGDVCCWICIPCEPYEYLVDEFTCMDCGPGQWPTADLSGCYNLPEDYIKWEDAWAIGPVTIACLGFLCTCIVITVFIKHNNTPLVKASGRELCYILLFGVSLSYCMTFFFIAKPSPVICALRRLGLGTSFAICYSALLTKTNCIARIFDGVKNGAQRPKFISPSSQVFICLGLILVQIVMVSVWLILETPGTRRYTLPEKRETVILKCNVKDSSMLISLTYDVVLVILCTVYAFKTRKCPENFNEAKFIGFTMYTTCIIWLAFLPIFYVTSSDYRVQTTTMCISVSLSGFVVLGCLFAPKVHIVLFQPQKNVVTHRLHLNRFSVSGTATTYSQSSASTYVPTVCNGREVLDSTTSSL

[10] = A Cell-Based Confirmatory Screen for Compounds that Inhibit VEEV, TC-83 (8).; type: functional
[11] = Late stage assay provider results from the probe development effort to identify inhibitors of the Plasmodium falciparum M17 Leucine Aminopeptidase (M17LAP): radiolabel-based cell-based dose response assay to identify compounds that inhibit P. falciparum growth in RBCs Set 2.; type: functional

## Cc1cc(C)nc(Nc2nc(C(N)CCc3ccccc3)cs2)n1 (stereo unspecified)
[1]
  AC50: 6.75 µM (active)
[2]
  AC50: 18.2 µM (active)
[3]
  AC50: 40.1 µM (active)
[4]
  AC50: 3.65 µM (active)
[5]
  AC50: 4.75 µM (active)

## C[C@@H]1CN([C@@H](C)CO)C(=O)c2cccc(NC(=O)c3ccncc3)c2O[C@H]1CN(C)Cc1ccc(Cl)c(Cl)c1
[6]
  AC50: 0.08 µM (active)
[7]
  AC50: 16.6 µM (active)

## CS(=O)(=O)Nc1ccc2c(c1)[C@@H]1C[C@H](CC(=O)NCC3CC3)O[C@H](CO)[C@@H]1O2
[8]
  AbsAC35: 85.99 µM

## COc1ccc(C#Cc2ccc(C(=O)N3CCC[C@@H](O)C3)cc2)cc1
[9]
  IC50: 0.597 µM

## O=c1nc(Nc2ccc(OCc3ccccc3)cc2)sc2ncc(F)cc12
[10]
  IC50: 1.42 µM (active)

## O=C(Cc1ccc2ccccc2c1)NO
[11]
  IC50: 5.8 µM (active)
